Measurements published in patent US8653092B2, “Tetrahydro-pyrido-pyrimidine derivatives” (Novartis AG, priority 2010, dated 2014).

Experiments:
murine B cells = assay: Murine B cell activation: CD86 upregulation after anti-IgM stimulation; type: cell-based, mouse; conditions: Balb/c mouse splenocytes, anti-IgM 24 h, CD86 on CD19+ B cells, read-out: mCD86/IC50 CD86 [nmol l − 1]
Experimental: Spleens from Balb/c mice were collected, splenocytes were isolated and washed twice with RPMI containing 10% foetal bovine serum (FBS), 10 mM HEPES, 100 Units/mL penicilline/streptomycine. RPMI supplemented in this way is subsequently referred to as medium. The cells were adjusted to 2.5×10^6 cells/mL in medium and 200 μl cell suspension (5×10^6 cells) were added to the appropriate wells of 96 well plates.
Then the cells were stimulated by adding 50 μl anti-IgM mAb in medium (final concentration: 30 μg/mL). After incubation for 24 hours at 37° C., the cells were stained with the following antibody cocktails: anti-mouse CD86-FITC, anti-mouse CD69-PerCP-Cy5.5, anti-mouse CD19-PerCP for the assessment of B cells, and anti-mouse CD3-FITC, anti-mouse CD69-PE for the assessment of T cells (2 μl of each antibody/well). After one hour at room temperature (RT) in the dark the cells were transferred to 96 Deepwell plates. The cells were washed once with 1 mL PBS containing 2% FBS and after re-suspension in 200 μl the samples were analyzed on a FACS Calibur flow cytometer. Lymphocytes were gated in the FSC/SSC dot plot according to size and granularity and further analyzed for expression of CD19, CD3 and activation markers (CD86, CD69). Data were calculated from dot blots as percentage of cells positively stained for activation markers within the CD19+ or CD3+ population using BD CellQest Software.
For assessing the inhibitory property of compounds, compounds were first dissolved and diluted in DMSO followed by a 1:50 dilution in medium. Splenocytes from Balb/c mice were isolated, re-suspended and transfered to 96 well plates as described above (200 μl/well). The diluted compounds or solvent were added to the plates (25 μl) and incubated at 37° C. for 1 hour. Then the cultures were stimulated with 25 μl anti-IgM mAb/well (final concentration […]) for 24 hours at 37° C. and stained with anti-mouse CD86-FITC and anti-mouse CD19-PerCP (2 μl of each antibody/well). CD86 expression on CD19 positive B cells was quantified by flow cytometry as described above.

[1] = test system: antibody production to sheep red blood cells (SRBC); assay: Antibody production to sheep red blood cells (SRBC), plaque forming assay; type: in vivo, rat; conditions: OFA rats, 10 mg/kg bid orally d0-d3, spleens on d4
Experimental: In brief, OFA rats were injected i.v. with sheep erythrocytes on d0 and treated orally on four consecutive days (d0 to d3) with the compounds under investigation. Spleen cell suspensions were prepared on d4 and lymphocytes were plated onto soft agar in presence of indicator cells (SRBC) and complement. Lysis of the indicator cells due to secretion of SRBC-specific antibody (predominantly of the IgM subclass) and presence of complement yielded plaques. The number of plaques per plate were counted and expressed as number of plaques per spleen.
Immunization: Groups of five female OFA rats were immunized on day 0 with 2×10^8/ml SRBC (obtained from Laboratory Animal Services LAS, Novartis Pharma AG) in a volume of 0.5 ml per rat by i.v. injection. […]
On day 4, animals were euthanized with CO2 Spleens were removed, weighed, and deposited in plastic tubes containing 10 ml of cold (4° C.) Hank's balanced salt solution (HBSS; Gibco, pH 7.3, containing 1 mg Phenolred/100 ml) for each rat spleen. […] Lymphocyte numbers per spleen were determined by automated cell counter and spleen cell suspensions were adjusted to a cell concentration of 30×10^6/ml. […]
In addition, one ml of 0.7% agarose was prepared in plastic tubes and kept at 48° C. in a water bath. […] Plaques were counted with a microscope. […]

[2] = target: human phosphoinositide-3 kinase (PI3K) delta (Homo sapiens (Human), UniProt O00329); assay: PI3K-mediated Akt 1/2 (S473) phosphorylation in Rat-1 cells (AlphaScreen SureFire); type: cell-based; conditions: Rat-1 cells overexpressing myristoylated human PI3K delta, p-Akt (Ser473); read-out: Cell PI3Kδ/ IC50 [umol l − 1]
Experimental: Rat-1 cells stably overexpressing a myristoylated form of the catalytic subunit of human phosphoinositide-3 kinase (PI3K) alpha, beta or delta were plated in 384-well plates at a density of 7500 (PI3K alpha), 6200 (PI3K beta), or 4000 (PI3K delta) cells in 30 ul complete growth medium (Dulbecco's modified Eagle's medium (DMEM high glucose) supplemented with 10% (v/v) fetal bovine serum, 1% (v/v) MEM non essential amino acids, 10 mM HEPES, 2 mM L-glutamine, 10 μg/mL puromycin and 1% (v/v) Penicillin/Streptomycin) and were incubated at […]/5% CO2/95% humidity for 24 h. Compounds were diluted in 384-well compound plates to obtain 8-point serial dilutions for 40 test compounds in 90% DMSO, as well as 4 reference compounds plus 16 high controls and 16 low (inhibited) controls. Predilution plates were prepared by dispensing pipetting 250 nl of compound solutions into 384-well polypropylen plates using a Hummingwell nanoliter dispensor. Compounds were prediluted by the addition of 49.75 ul complete growth medium. 10 ul of prediluted compound solution were transferred to the cell plate using a 384-well pipettor, resulting in a final DMSO concentration of 0.11%. Cells were incubated for 1 h at […]/5% CO2/95% humidity. The supernatant was removed, the cells were lysed in 20 ul of lysis buffer for AlphaScreen® SureFire® detection.
For detection of p-AKT (Ser473), the SureFire® p-Akt 1/2 (Ser473) Assay Kit (PerkinElmer, U.S.A) was used. 5 ul of cell lysate was transferred to 384-well low volume Proxiplates for detection using a 384-well pipettor. Addition of AlphaScreen® SureFire® reagents was done according to the manufacturer's protocol. First, 5 ul of reaction buffer plus activation buffer mix containing AlphaScreen® acceptor beads was added, the plate was sealed, and incubated on a plate shaker for 2 hours at room temperature. Second, 2 ul of dilution buffer containing AlphaScreen® donor beads was added, and the plate was incubated on plate shaker as above for a further 2 hours. The plate was read on an AlphaScreen® compatible plate reader, using standard AlphaScreen® settings.

PI3K alpha = PI3K alpha (Homo sapiens (Human), UniProt P42336); assay: Enzymatic PI3K alpha isoform inhibition (lipid kinase, Kinase-Glo luminescence); type: biochemical; conditions: enzymatic assay
PI3K delta = PI3K delta (Homo sapiens (Human), UniProt O00329); assay: Enzymatic PI3K delta isoform inhibition (lipid kinase, Kinase-Glo luminescence); type: biochemical; conditions: enzymatic assay
Chain of PI3K delta (O00329 other isoform, or with tags, fused parts or gaps linker GGGGGG): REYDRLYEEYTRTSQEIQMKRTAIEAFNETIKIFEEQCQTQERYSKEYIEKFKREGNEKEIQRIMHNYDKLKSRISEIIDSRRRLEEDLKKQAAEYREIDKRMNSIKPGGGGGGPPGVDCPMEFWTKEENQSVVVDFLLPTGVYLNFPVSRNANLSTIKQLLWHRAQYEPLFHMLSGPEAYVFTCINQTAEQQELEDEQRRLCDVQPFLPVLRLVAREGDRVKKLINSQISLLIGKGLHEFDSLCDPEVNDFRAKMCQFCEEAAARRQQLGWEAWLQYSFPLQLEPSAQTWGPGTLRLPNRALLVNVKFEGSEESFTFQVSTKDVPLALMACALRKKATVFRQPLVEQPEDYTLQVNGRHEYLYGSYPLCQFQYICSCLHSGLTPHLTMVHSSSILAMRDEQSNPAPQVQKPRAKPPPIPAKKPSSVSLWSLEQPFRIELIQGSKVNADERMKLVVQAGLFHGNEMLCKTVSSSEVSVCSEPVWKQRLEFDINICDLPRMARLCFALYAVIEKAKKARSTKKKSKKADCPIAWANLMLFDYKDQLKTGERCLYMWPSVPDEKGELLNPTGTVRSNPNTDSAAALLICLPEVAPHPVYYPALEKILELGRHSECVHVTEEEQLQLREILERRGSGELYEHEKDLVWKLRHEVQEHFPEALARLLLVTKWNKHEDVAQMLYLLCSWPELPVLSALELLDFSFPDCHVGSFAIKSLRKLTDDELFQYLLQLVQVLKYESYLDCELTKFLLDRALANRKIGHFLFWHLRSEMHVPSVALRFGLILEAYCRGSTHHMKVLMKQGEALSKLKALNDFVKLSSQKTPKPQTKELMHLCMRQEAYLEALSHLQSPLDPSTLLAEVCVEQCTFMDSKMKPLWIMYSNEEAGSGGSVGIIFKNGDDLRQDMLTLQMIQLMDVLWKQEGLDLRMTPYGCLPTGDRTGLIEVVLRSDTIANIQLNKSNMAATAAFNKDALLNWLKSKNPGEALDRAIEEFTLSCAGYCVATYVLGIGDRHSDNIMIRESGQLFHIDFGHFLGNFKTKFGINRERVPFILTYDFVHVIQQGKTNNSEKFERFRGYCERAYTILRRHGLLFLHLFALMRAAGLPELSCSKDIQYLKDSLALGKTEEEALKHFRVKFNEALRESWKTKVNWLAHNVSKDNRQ

Chain of human phosphoinositide-3 kinase (PI3K) delta (O00329 whole entry): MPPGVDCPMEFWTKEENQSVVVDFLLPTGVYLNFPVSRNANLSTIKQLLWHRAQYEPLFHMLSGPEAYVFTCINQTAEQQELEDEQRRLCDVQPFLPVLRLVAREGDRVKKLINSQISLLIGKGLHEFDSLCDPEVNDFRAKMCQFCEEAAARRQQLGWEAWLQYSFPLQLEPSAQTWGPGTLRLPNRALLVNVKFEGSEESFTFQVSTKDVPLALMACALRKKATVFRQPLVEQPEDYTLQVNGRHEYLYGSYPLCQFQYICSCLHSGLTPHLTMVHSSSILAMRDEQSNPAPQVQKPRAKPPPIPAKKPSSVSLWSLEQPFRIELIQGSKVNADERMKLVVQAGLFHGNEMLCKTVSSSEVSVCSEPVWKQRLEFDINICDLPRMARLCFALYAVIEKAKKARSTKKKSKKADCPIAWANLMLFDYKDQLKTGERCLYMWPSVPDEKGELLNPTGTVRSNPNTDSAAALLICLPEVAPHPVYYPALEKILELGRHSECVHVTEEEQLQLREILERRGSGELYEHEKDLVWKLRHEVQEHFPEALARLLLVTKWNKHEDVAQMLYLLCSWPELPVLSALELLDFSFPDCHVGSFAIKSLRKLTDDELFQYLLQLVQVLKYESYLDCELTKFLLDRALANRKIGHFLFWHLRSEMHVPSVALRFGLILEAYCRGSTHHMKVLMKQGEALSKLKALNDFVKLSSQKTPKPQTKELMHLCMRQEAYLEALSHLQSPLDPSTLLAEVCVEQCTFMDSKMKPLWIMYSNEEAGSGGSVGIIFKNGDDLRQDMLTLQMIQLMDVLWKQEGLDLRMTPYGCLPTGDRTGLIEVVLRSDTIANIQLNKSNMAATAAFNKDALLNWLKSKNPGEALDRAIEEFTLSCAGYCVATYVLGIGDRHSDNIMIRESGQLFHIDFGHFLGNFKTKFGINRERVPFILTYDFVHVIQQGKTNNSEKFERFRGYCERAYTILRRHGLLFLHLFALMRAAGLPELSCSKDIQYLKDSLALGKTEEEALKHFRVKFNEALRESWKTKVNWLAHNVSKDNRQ
Chain of human phosphoinositide-3 kinase (PI3K) delta (Q63787 whole entry partner): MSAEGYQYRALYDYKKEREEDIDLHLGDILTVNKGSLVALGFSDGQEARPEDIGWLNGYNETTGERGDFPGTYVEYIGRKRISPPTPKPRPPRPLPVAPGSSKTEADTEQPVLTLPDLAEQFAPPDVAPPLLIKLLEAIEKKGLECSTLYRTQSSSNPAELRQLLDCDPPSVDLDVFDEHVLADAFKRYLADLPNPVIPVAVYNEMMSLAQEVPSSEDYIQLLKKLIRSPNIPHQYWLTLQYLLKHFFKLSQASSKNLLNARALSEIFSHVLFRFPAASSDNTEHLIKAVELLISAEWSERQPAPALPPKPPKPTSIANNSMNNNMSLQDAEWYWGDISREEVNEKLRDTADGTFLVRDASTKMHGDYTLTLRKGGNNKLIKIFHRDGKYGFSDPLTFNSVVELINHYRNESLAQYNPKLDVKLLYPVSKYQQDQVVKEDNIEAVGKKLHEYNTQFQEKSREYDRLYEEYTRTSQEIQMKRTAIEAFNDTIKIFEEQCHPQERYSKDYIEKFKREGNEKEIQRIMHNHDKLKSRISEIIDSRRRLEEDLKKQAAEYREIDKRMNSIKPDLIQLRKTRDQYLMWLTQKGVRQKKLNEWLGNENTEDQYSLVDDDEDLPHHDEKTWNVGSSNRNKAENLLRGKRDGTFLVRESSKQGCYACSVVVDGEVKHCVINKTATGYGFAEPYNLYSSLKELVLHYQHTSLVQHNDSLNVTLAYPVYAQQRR
Chain of PI3K alpha (P42336 other isoform, or with tags, fused parts or gaps): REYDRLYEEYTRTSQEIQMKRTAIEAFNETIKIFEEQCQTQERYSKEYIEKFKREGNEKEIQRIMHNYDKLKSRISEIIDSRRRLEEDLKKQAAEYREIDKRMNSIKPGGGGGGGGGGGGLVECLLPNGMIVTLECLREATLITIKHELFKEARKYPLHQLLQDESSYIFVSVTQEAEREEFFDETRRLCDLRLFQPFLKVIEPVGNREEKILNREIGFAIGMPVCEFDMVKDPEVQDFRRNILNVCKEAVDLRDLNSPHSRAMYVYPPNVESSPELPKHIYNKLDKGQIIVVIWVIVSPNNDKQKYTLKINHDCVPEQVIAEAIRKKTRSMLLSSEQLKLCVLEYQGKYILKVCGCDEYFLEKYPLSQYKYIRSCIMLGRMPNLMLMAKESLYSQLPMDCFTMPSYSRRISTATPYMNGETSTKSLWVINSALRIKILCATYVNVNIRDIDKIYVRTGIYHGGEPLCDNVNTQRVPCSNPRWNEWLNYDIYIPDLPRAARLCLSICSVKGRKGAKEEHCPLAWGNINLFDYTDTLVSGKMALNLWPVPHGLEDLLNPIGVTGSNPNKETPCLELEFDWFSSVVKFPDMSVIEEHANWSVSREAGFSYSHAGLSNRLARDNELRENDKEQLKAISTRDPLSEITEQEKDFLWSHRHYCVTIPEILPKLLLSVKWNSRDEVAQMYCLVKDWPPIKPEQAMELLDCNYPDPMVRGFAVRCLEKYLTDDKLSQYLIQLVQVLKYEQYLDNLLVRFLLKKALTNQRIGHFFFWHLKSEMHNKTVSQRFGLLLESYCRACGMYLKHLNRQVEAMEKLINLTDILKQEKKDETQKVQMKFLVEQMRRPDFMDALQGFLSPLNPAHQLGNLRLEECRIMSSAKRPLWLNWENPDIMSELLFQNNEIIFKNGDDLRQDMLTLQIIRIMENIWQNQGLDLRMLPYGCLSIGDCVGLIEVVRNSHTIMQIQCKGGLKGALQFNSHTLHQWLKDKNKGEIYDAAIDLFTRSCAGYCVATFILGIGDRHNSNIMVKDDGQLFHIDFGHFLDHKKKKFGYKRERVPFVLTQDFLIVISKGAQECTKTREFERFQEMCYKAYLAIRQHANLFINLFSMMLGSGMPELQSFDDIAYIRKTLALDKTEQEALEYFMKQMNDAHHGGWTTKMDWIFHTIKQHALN

IC50 (murine B cells)	IC50 [2]	IC50 (PI3K alpha)	IC50 (PI3K delta)	SMILES	Plaques/spleen [1]
94.9 nM	153 nM			COc1ncc(N2CCc3ncnc(O[C@H]4CCN(C(=O)C5CCOCC5)C4)c3C2)cc1C [Example 1, {(S)-3-[6-(6-Methoxy-5-methyl-pyridin-3-yl)-5,6,7,8-tetrahydro-pyrido[4,3-d]pyrimidin-4-yloxy]-pyrrolidin-1-yl}-(tetrahydro-pyran-4-yl)-methanone]	12608 ± 4986
46.2 nM	116 nM	66 nM	3 nM	COc1ncc(N2CCc3ncnc(N[C@H]4CCN(C(=O)C5CCOCC5)C4)c3C2)cc1Cl [Example 82, {(S)-3-[6-(5-Chloro-6-methoxy-pyridin-3-yl)-5,6,7,8-tetrahydro-pyrido[4,3-d]pyrimidin-4-ylamino]-pyrrolidin-1-yl}-(tetrahydro-pyran-4-yl)-methanone]	
